Assay results from article PMC467089, “Click estradiol dimers with novel aromatic bridging units: synthesis and anticancer evaluation” (Journal of Enzyme Inhibition and Medicinal Chemistry, 2024).

Experiments:
CCRF-CEM lymphoblasts [1] = experiment: Cell cycle analysis by flow cytometry (propidium iodide); type: cell-based, human
Protocol: (§1) To further characterise the mode of action of studied compounds, we analysed the cell cycle profile of CCRF-CEM cells treated with compounds for 24 h. […] The compounds ED1–ED9 and ED12 induced arrest in G2/M phase of the cell cycle (Figure 2(A)). To differentiate between G2 block and mitotic arrest, we used phospho-histone H3 (Ser10) mitotic marker (Figure 2(B)). […] Generally, dimers induced a dose-dependent increase of sub G1 cell population with fragmented DNA except for ED2 and ED4 (Figure 2(C)). […] To assess the proliferation of treated cells, they were subjected to 5-bromo-2-deoxyuridine (BrDU) labelling. […] Analogously, changes in 5-bromouridine (BrU) incorporation were examined to monitor overall RNA synthesis.
(§2) Treated CCRF-CEM cells were harvested, washed with ice-cold phosphate-buffered saline (PBS), fixed in cold 70% ethanol and stored at −20 °C. Prior to analysis, fixed cells were permeabilised with 0.25% Triton X-100 in PBS for 15 min, blocked in 1% bovine serum, and incubated with anti-phospho-Histone H3 (Ser^10) antibody (Merck Millipore, Burlington, MA). Subsequently, the cells were treated with 50 μg/mL RNAse, stained with propidium iodide and analysed by FACSCalibur (Becton Dickinson, Franklin Lakes, NJ) flow cytometer at 488 nm. Cell cycle distribution (G1, S, and G2/M) was analysed using ModFitLT software (Verity, Topsham, ME), and reflects only viable population prior to the fixing procedure. Particles with lower propidium iodide content than G1 phase cells were classified as non-viable cells with fragmented DNA. Flow cytometry data visualisation was performed using OriginPro 2018b (b9.5.5.409) software (OriginLab Corporation, Northampton, MA)[10].

[2] = test system: A549 (lung adenocarcinoma); experiment: MTS cytotoxicity assay, A549; type: cell-based, human; conditions: for IC50: Homo sapiens, A549, 72 h, read-out: IC50 cytotoxic activity A549
Protocol: (§3) The p53 deficient variant, HCT116p53−/−, was purchased from Horizon Discovery (Cambridge, UK). The daunorubicin-resistant CCRF-CEM cell line CEM-DNR bulk and paclitaxel-resistant K562-TAX sublines were developed in-house by exposing parental cell lines to escalating concentrations of daunorubicin and paclitaxel, respectively. Cells were maintained in the recommended culture medium (Sigma-Aldrich, St. Louis, MO) supplemented with 10% foetal calf serum, 100 U/mL penicillin, and 100 μg/mL streptomycin. The HUVEC line was obtained from PromoCell (Heidelberg, Germany). The cells were cultured in endothelial cell growth medium with SupplementMix for endothelial cells (PromoCell, Heidelberg, Germany). The incubation conditions were a humidified atmosphere of 95% air and 5% CO2 at 37 °C[10]. Cells were seeded in 384-well plates and after overnight incubation treated with compounds. All tested compounds were dissolved in 100% DMSO, and fourfold serial dilutions were performed using an Echo550 liquid handler (Labcyte, San Jose, CA). The experiments were performed in technical duplicates and three biological replicates. Cells were incubated with compounds for 72 h and thereafter 5 μL of MTS reagent was added to each well.

[3] = MTS cytotoxicity assay, MRC-5; type: cell-based; conditions: human
Protocol: as §3

[4] = test system: HCT116p53−/− (p53 gene null variant of HCT116); experiment: MTS cytotoxicity assay, HCT116p53−/−; type: cell-based; conditions: Homo sapiens, HCT-116, 72 h, read-out: IC50 cytotoxic activity HCT116p53-
Protocol: as §3

[5] = MTS cytotoxicity assay, BJ; type: cell-based; conditions: human
Protocol: as §3

CCRF-CEM lymphoblasts [6] = experiment: Phospho-histone H3 (Ser10) mitotic marker, flow cytometry; type: cell-based, human
Protocol: as §1, §2

CCRF-CEM lymphoblasts [7] = experiment: BrU incorporation analysis (RNA synthesis); type: cell-based, human
Protocol: as §1
Prior to the trypsinisation, cells were treated with 1 mM BrU for 30 min. Subsequently, the cells were fixed in 1% paraformaldehyde with 0.05% of NP-40 for 15 min at RT and stored overnight at 4 °C. Fixed cells were washed with 1% glycine in PBS and stained with primary anti-BrdU antibody clone MoBu-1 crossreacting with BrU (Exbio, Vestec, Czech Republic) for 30 min at RT, washed with PBS and labelled with secondary anti-mouse-FITC antibody (Sigma-Aldrich, St. Louis, MO). Following 1-h incubation in 1% paraformaldehyde containing 0.05% NP-40, cells were stained with propidium iodide (0.1 mg/mL) and treated with RNase A (0.5 mg/mL) for 1 h at RT. The percentage of BrU positive cells was quantified using CellQuest software.

[8] = test system: K562-TAX (paclitaxel-resistant variant of K562); experiment: MTS cytotoxicity assay, K562-TAX; type: cell-based, human; conditions: Homo sapiens, K562-Tax, 72 h, read-out: IC50 cytotoxic activity K562-TAX
Protocol: as §3

[9] = test system: CEM-DNR (daunorubicin resistant variant of CCRF-CEM); experiment: MTS cytotoxicity assay, CEM-DNR; type: cell-based, human; conditions: Homo sapiens, CEM-DNR, 72 h, read-out: IC50 cytotoxic activity CEM-DNR
Protocol: as §3

[10] = test system: K562 (chronic myelogenous leukaemia); experiment: MTS cytotoxicity assay, K562; type: cell-based; conditions: Homo sapiens, K562, 72 h, read-out: IC50 cytotoxic activity K562
Protocol: as §3

[11] = test system: CCRF-CEM (childhood T-cell acute lymphoblastic leukaemia); experiment: MTS cytotoxicity assay, CCRF-CEM; type: cell-based; conditions: Homo sapiens, 72 h, read-out: IC50 cytotoxic activity CCRF-CEM
Protocol: as §3

CCRF-CEM lymphoblasts [12] = experiment: BrDU incorporation analysis (DNA synthesis); type: cell-based, human
Protocol: as §1
Thirty minutes before harvesting, cells were pulse-labelled with 10 μM BrDU. After overnight fixation in ice-cold 70% ethanol, cells were resuspended in 2 M HCl for 30 min at room temperature (RT), then washed with 0.1 M Na2B4O7 and blocked with PBS containing 0.5% Tween-20 and 1% BSA. BrDU incorporation was analysed using anti-BrdU antibody clone MoBu-1 (Exbio, Vestec, Czech Republic) and a secondary anti-mouse-FITC antibody (Sigma-Aldrich, St. Louis, MO). Cells were washed with PBS and stained with 0.1 mg/mL propidium iodide and 0.5 mg/mL RNase A for 1 h at RT and analysed by flow cytometry using a 488 nm single beam laser (FACSCalibur, Becton Dickinson, Franklin Lakes, NJ). The percentage of cells with incorporated BrDU was analysed using CellQuest software.

U2OS (osteosarcoma) = experiment: MTS cytotoxicity assay, U2OS; type: cell-based, human; conditions: for IC50: Homo sapiens, U2OS, 72 h, read-out: IC50 cytotoxic activity U2OS
Protocol: as §3

porcine brain tubulin = target: T1, porcine brain tubulin (Sus scrofa, UniProt P02550+P02554); experiment: Tubulin polymerisation assay; type: biochemical; conditions: 10 μmol/L, Vmax relative to DMSO
T1 construct: purchased Cytoskeleton, Denver, CO; host or cells: porcine brain (tissue-purified)
Protocol: Tubulin polymerisation assay kit (Cytoskeleton, Denver, CO) was used according to the manufacturer’s instructions. Polymerisation of porcine brain tubulin (>99% purity) was measured using an EnVision Multilabel Plate Reader (PerkinElmer, Waltham, MA) at 37 °C, in the presence of either 10 μmol/L test compounds or DMSO. Maximum polymerisation velocity (Vmax) was calculated from the polymerisation curves. Data visualisation was performed in OriginPro 2018b (b9.5.5.409) software (OriginLab Corporation, Northampton, MA)[10].

[13] = test system: HCT116 (colorectal adenocarcinoma); experiment: MTS cytotoxicity assay, HCT116; type: cell-based; conditions: Homo sapiens, HCT-116, 72 h, read-out: IC50 cytotoxic activity HCT116
Protocol: as §3

[14] = MTS cytotoxicity assay, HUVEC; type: cell-based; conditions: human
Protocol: as §3

T1 sequence (P02550 whole entry): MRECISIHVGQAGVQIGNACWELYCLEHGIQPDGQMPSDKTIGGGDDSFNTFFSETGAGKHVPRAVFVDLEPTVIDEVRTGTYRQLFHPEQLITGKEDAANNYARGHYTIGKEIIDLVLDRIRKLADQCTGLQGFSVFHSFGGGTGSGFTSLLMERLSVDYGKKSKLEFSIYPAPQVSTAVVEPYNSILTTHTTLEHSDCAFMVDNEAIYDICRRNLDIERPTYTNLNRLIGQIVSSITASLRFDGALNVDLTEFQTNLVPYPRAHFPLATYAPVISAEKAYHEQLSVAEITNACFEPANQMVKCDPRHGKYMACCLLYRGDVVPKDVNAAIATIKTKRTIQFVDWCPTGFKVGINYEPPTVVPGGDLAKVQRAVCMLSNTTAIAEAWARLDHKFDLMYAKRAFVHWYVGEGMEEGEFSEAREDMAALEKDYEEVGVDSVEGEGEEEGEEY
T1 sequence (P02554 whole entry): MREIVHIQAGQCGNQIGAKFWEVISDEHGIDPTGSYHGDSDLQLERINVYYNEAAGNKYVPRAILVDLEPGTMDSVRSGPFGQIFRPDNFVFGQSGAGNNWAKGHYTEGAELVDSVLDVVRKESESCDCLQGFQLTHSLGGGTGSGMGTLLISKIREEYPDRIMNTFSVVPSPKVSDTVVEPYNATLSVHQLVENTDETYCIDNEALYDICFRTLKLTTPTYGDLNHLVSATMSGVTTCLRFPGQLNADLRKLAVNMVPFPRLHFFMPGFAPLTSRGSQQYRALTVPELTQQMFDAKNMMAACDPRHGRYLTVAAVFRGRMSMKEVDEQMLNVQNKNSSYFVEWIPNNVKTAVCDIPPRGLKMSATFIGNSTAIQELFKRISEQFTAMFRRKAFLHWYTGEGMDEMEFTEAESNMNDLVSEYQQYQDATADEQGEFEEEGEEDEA

| Structure (SMILES) | <G1 (sub-G1, fragmented DNA), % of positive cells (CCRF-CEM lymphoblasts [1]; 1×IC50, 24 h) [%] | >G2/M (polyploidy), % of positive cells (CCRF-CEM lymphoblasts [1]; 1×IC50, 24 h) [%] | G0/G1, % of positive cells (CCRF-CEM lymphoblasts [1]; 1×IC50, 24 h) [%] | G2/M, % of positive cells (CCRF-CEM lymphoblasts [1]; 1×IC50, 24 h) [%] | S, % of positive cells (CCRF-CEM lymphoblasts [1]; 1×IC50, 24 h) [%] | <G1 (sub-G1, fragmented DNA), % of positive cells (CCRF-CEM lymphoblasts [1]; 5×IC50, 24 h) [%] | >G2/M (polyploidy), % of positive cells (CCRF-CEM lymphoblasts [1]; 5×IC50, 24 h) [%] | G0/G1, % of positive cells (CCRF-CEM lymphoblasts [1]; 5×IC50, 24 h) [%] | G2/M, % of positive cells (CCRF-CEM lymphoblasts [1]; 5×IC50, 24 h) [%] | S, % of positive cells (CCRF-CEM lymphoblasts [1]; 5×IC50, 24 h) [%] | IC50 [2] [nM] | IC50 at 72 h [3] [nM] | IC50 [4] [nM] | IC50 at 72 h [5] [nM] | pH3Ser10, % of positive cells (CCRF-CEM lymphoblasts [6]; 1×IC50, 24 h) [%] | pH3Ser10, % of positive cells (CCRF-CEM lymphoblasts [6]; 5×IC50, 24 h) [%] | BrU, % of positive cells (CCRF-CEM lymphoblasts [7]; 1×IC50, 24 h) [%] | BrU, % of positive cells (CCRF-CEM lymphoblasts [7]; 5×IC50, 24 h) [%] | IC50 [8] [nM] | IC50 [9] [nM] | also measured |
| --- | --- | --- | --- | --- | --- | --- | --- | --- | --- | --- | --- | --- | --- | --- | --- | --- | --- | --- | --- | --- | --- |
| CC(=O)Oc1cc(Cn2cc([C@]3(O)CC[C@H]4[C@@H]5CCc6cc(O)ccc6[C@H]5CC[C@@]43C)nn2)cc(Cn2cc([C@]3(O)CC[C@H]4[C@@H]5CCc6cc(O)ccc6[C@H]5CC[C@@]43C)nn2)c1 [ED4, 3,5-Bis({4-[(17β)-3,17-dihydroxyestra-1,3,5(10)-trien-17-yl]-1H-1,2,3-triazol-1-yl}methyl)phenyl acetate] | 61.81 | 6.75 | 25.61 | 40.50 | 33.89 | 31.27 | 10.24 | 8.75 | 71.41 | 19.84 | > 50000 | > 50000 | 2150 ± 100 | > 50000 | 1.25 | 0.12 | 66.58 | 3.26 | > 50000 | > 50000 | IC50 cytotoxic activity A549 [2]: did not exhibit activity; mitosis-specific phosphorylation of histone H3 (in words) (CCRF-CEM lymphoblasts [6]; 1× and 5×IC50, 24 h): did not induce an increase of mitosis-specific phosphorylation of histone H3; IC50 [10]: 490 ± 40 nM; IC50 [11]: 1090 ± 110 nM; BrDU, % of positive cells (CCRF-CEM lymphoblasts [12]; 1×IC50, 24 h): 26.50%; BrDU, % of positive cells (CCRF-CEM lymphoblasts [12]; 5×IC50, 24 h): 7.16%; IC50 cytotoxic activity U2OS (U2OS (osteosarcoma)): did not exhibit activity; IC50 (U2OS (osteosarcoma)): > 50000 nM; inhibitory activity against tubulin polymerisation (in words) (porcine brain tubulin): comparable or better inhibitory activity; IC50 [13]: 2060 ± 180 nM; IC50 at 72 h [14]: 16 ± 6 nM |
| Cc1cc(Cn2cc([C@]3(O)CC[C@H]4[C@@H]5CCc6cc(O)ccc6[C@H]5CC[C@@]43C)nn2)c(O)c(Cn2cc([C@]3(O)CC[C@H]4[C@@H]5CCc6cc(O)ccc6[C@H]5CC[C@@]43C)nn2)c1 [ED6, (17β,17′β)-17,17′-[(2-Hydroxy-5-methylbenzene-1,3-diyl)bis(methanediyl-1H-1,2,3-triazole-1,4-diyl)]bisestra-1,3,5(10)-triene-3,17-diol] | 11.43 | 6.19 | 32.46 | 29.74 | 37.81 | 36.87 | 9.85 | 8.21 | 73.29 | 18.50 | 8600 ± 2220 | > 50000 | 1870 ± 130 | > 50000 | 9.07 | 0.76 | 67.97 | 39.43 | > 50000 | > 50000 | RNA synthesis, BrU incorporation (in words) (CCRF-CEM lymphoblasts [7]; 1× and 5×IC50, 24 h, gated remaining live cells): high rate of RNA synthesis; IC50 [10]: 1390 ± 210 nM; IC50 [11]: 1540 ± 250 nM; BrDU, % of positive cells (CCRF-CEM lymphoblasts [12]; 1×IC50, 24 h): 37.25%; BrDU, % of positive cells (CCRF-CEM lymphoblasts [12]; 5×IC50, 24 h): 7.83%; IC50 (U2OS (osteosarcoma)): 5060 ± 1680 nM; inhibitory activity against tubulin polymerisation (in words) (porcine brain tubulin): comparable or better inhibitory activity; IC50 [13]: 1740 ± 110 nM; IC50 at 72 h [14]: < 12.2 nM |
